Source: US7423068B2, “Control of parasitic mites of honey bees” (The United States of America as represented by the …, priority 2001, dated 2008)
Several values for one entry are separate records, joined by “and”; a condition that tells them apart may be missing. Equal values may be shown once.

What was measured:
free-running adult mites = test system: free-running adult mites
Procedure: 2-Heptanone was tested for miticidal activity in two separate sets of bioassays. In the petri dish bioassays we exposed free-running adult mites to volatiles from 2-heptanone either in pure form or in an acrylic block dispenser (as described in a further experiment, below) and measured mortality over time. Mites were placed in petri dishes (5-10 mites/dish, 4 dishes per treatment and 4 dishes for controls) that were lined on the bottom with damp tissue paper covered with Parafilm®. Holes were punched in the Parafilm® using an insect pin to create a humid environment in the petri dish. A piece of filter paper the same size as the petri dish was placed on top of the Parafilm® sheet. In the first petri dish bioassay, 40 μl of pure 2-heptanone was placed on a piece of filter paper on the lid of the petri dish (treatment dishes). The Control dishes were set up as described above but nothing was added to the piece of filter paper fastened to the lid of the petri dish. The petri dishes were placed in separate incubators for treatments and Controls. Incubator temperatures were maintained at 33-34.4° C. […] In the second bioassay 0.1 g of a 30% concentration of 2-heptanone in acrylic block made as in Example 6 was placed in a plastic weighing boat in the center of petri dishes prepared as described above. Control petri dishes were prepared identically to those containing the acrylic block, but the weighing boat in the center of the dish was empty.
In another series of tests, 2-heptanone, 98+% (Sigrma-Aldrich); 3-heptanone (Fluka Chemika); 4-heptanone (Fluka Chemika); 2-hexanone; 2-octanone, 98% (Aldrich Chemical Co.); 1-heptanol (Fluka Chemika, 99.5% GC), and heptaldehyde, 95% (Aldrich Chemical Co.) were tested in petri dish bioassays wherein free-running adult mites were exposed to 40 μl of pure compound placed on filter paper as described above. The test conditions and Controls were as described above.
The test conditions and Controls were as described above.

mites = assay: Minimum Level Treatment Effectiveness petri dish bioassay; type: in vivo; settings: for # of Dead Mites/Total Mites: 17.5 hours exposure
Procedure: Determination of the minimum amount of 2-heptanone effective in mite mortality in our bioassay was performed according to the following procedure: 3 Kimwipes® were placed on the bottom of petri dishes and slightly moistened with water using a disposable 1 ml pipette. A cut section of Parafilm® M was placed over the moistened Kimwipes® and stretched up and over the outer edge of the petri dish bottom. […] A single Whatman® Filter paper (9.0 cm) was placed on top of the pierced Parafilm® area and pushed down to create space between the filter paper and the petri dish lid. Six to eight mites and two bee larvae were placed on top of the filter paper in each petri dish. A small strip of filter paper was taped to the inside top of each petri dish. Four groups of two petri dishes were labeled according to the type of treatment. The treatments were: 1 μL 2-heptanone; 5 μL 2-heptanone; 10 μL 2-heptanone; and Control (no treatment). All eight dishes were then placed in incubators set to maintain a temperature of 33-34.4° C. Our results were as follows:
In our second bioassay, the same protocol was applied; however we sought to investigate if lower amounts of 2-heptanone could be as effective. In this trial, amounts of 0.5 and 1 μL of 2-heptanone were used. After 17.5 hours exposure to 2-heptanone, our results were as follows: […]

[1] = Release rate of 2-heptanone from acrylic blocks; type: physicochemical; settings: acrylic block, 34° C.
Text: Blocks having the following composition were made:
Polymerization was triggered with 2.9% benzoyl peroxide and 1.1% dimethylparatoluidine. Each block weighed approximately 30 grams (Diam. 60 mm, Height 10 mm). The blocks were molded in an aluminum cup.
However, it was found, because of a packaging problem, that the blocks lost some active ingredient during transportation and had only 30% 2-heptanone. To avoid any further loss of active ingredient, the unused samples were stored at all times in a refrigerator at 4° C. The value of 30% 2-heptanone was kept for further processing of the data. The rate at which 2-heptanone was released from the blocks was measured. The experimental procedure consisted in weighing the acrylic blocks left in their aluminum mold at regular intervals. The blocks were kept in an incubator set at 34° C. (temperature of the center of the brood nest in a honey bee hive). It is noteworthy that the incubator is not air tight and that the incubator glass door had to be opened to retrieve the sample to be weighed. An Isotemp Incubator from Fisher Scientific was used. The incubator has a measured volume of 71 liters. The samples were monitored for 44 days.

[2] = test system: wax moth (Galleria mellonella); assay: Control of wax moth in stored frames with drawn comb; type: in vivo; settings: 1, 2 or 3 slow release strips with 60 grams 2-heptanone, after 5 weeks; equipment without 2-heptanone totally infested
Text: We conducted an experiment where we stored five frames with drawn comb in a nucleus colony box without bees present. In three nucleus colony boxes we placed 1, 2 or 3 strips containing 60 grams of 2-heptanone in a slow release formulation. In a fourth nucleus colony box we placed no 2-heptanone. Within 2 weeks after the start of the experiment, the equipment without 2-heptanone had wax moth adults present between the frames. The adults probably were laying eggs. After 5 weeks, the equipment without 2-heptanone was totally infested with wax moth. There still was no wax moth in any equipment containing 2-heptanone.

Compound: CCCCCC(C)=O [2-Heptanone]
- % of the mites dead (free-running adult mites; 0.1 g of 30% 2-heptanone in acrylic block, 4 hrs., controls 6%): 90%
- time until all the mites were dead (free-running adult mites; 40 μl pure 2-heptanone on filter paper, 33-34.4° C., controls 0% mortality): less than 2 hrs.
- # of Dead Mites/Total Mites (mites; 0.5 μL 2-heptanone, per dish): 1/6 and 1/5 and 2/6 and 0/5
- # of Dead Mites/Total Mites (mites; 1 μL 2-heptanone, per dish): 3/6 and 0/5 and 1/4 and 1/5
- % Mortality 25.5 hours (mites; 1 μL 2-heptanone, per dish): 50% and 66%
- % Mortality 40.5 hours (mites; 1 μL 2-heptanone, per dish): 50% and 66%
- % Mortality 40.5 hours (mites; 5 μL 2-heptanone, per dish): 100% and 68%
- % Mortality 17.5 hours (mites; 10 μL 2-heptanone, per dish): 66% and 40%
- % Mortality 25.5 hours (mites; 10 μL 2-heptanone, per dish): 66% and 50%
- % Mortality 40.5 hours (mites; 10 μL 2-heptanone, per dish): 66% and 60%
- action on the mites at higher concentrations (mites; mites inanimate at 1 hour, active again as 2-heptanone evaporated): knockdown action
- minimum amount of 2-heptanone that will cause mite mortality (mites; petri dish): 1 µL
- % 2-Heptanone loss (initial conc. 30%) ([1]; Day 0): 0%
- Daily release in percentage ([1]; Day 0): 0 percentage
- % 2-Heptanone loss (initial conc. 30%) ([1]; Day 1): 29.13%
- Daily release in percentage ([1]; Day 1): 29.13 percentage
- % 2-Heptanone loss (initial conc. 30%) ([1]; Day 2): 38.76%
- Daily release in percentage ([1]; Day 2): 9.63 percentage
- % 2-Heptanone loss (initial conc. 30%) ([1]; Day 3): 49.04%
- Daily release in percentage ([1]; Day 3): 10.28 percentage
- % 2-Heptanone loss (initial conc. 30%) ([1]; Day 4): 55.72%
- Daily release in percentage ([1]; Day 4): 6.68 percentage
- % 2-Heptanone loss (initial conc. 30%) ([1]; Day 7): 68.85%
- Daily release in percentage ([1]; Day 7): 4.38 percentage
- % 2-Heptanone loss (initial conc. 30%) ([1]; Day 8): 71.82%
- Daily release in percentage ([1]; Day 8): 2.97 percentage
- % 2-Heptanone loss (initial conc. 30%) ([1]; Day 9): 74.7%
- Daily release in percentage ([1]; Day 9): 2.88 percentage
- % 2-Heptanone loss (initial conc. 30%) ([1]; Day 10): 76.09%
- Daily release in percentage ([1]; Day 10): 1.39 percentage
- % 2-Heptanone loss (initial conc. 30%) ([1]; Day 11): 77.88%
- Daily release in percentage ([1]; Day 11): 1.79 percentage
- % 2-Heptanone loss (initial conc. 30%) ([1]; Day 14): 82.31%
- Daily release in percentage ([1]; Day 14): 1.48 percentage
- % 2-Heptanone loss (initial conc. 30%) ([1]; Day 15): 83.43%
- Daily release in percentage ([1]; Day 15): 1.12 percentage
- % 2-Heptanone loss (initial conc. 30%) ([1]; Day 16): 84.39%
- Daily release in percentage ([1]; Day 16): 0.96 percentage
- % 2-Heptanone loss (initial conc. 30%) ([1]; Day 18): 86.24%
- Daily release in percentage ([1]; Day 18): 0.92 percentage
- % 2-Heptanone loss (initial conc. 30%) ([1]; Day 21): 88.43%
- Daily release in percentage ([1]; Day 21): 0.73 percentage
- % 2-Heptanone loss (initial conc. 30%) ([1]; Day 24): 89.98%
- Daily release in percentage ([1]; Day 24): 0.52 percentage
- % 2-Heptanone loss (initial conc. 30%) ([1]; Day 30): 92.36%
- Daily release in percentage ([1]; Day 30): 0.4 percentage
- % 2-Heptanone loss (initial conc. 30%) ([1]; Day 44): 95.21%
- Daily release in percentage ([1]; Day 44): 0.2 percentage
- wax moth infestation of stored equipment [2]: no wax moth
